Laboratory results: paper PMC7614687, “Modulation of the substrate specificity of the kinase PDK1 by distinct conformations of the full-length protein*” (Science signaling, 2023)

Target: T1, GST-PDK1_1-556 (Homo sapiens, UniProt O15530)
T1 construct: made in house; host or cells: HEK293 cells (transient transfection of pEBG2T); peptide synthesized by Pepscan
T1 sequence (O15530 1-556): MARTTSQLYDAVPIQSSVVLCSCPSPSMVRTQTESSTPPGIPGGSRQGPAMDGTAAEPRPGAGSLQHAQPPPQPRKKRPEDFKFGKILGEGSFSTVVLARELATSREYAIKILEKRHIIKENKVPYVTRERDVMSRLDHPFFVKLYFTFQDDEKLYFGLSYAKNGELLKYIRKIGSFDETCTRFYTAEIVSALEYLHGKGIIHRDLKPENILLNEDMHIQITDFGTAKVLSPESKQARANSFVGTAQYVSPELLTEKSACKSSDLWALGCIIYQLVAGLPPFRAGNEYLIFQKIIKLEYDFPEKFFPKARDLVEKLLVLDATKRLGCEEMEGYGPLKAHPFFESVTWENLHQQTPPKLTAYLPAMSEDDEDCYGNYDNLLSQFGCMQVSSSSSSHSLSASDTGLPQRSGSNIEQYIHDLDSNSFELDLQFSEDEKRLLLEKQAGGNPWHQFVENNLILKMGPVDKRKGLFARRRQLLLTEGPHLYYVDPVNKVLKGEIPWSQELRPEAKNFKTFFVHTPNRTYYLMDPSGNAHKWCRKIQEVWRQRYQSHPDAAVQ
Assay: AlphaScreen biotin-GS-022 / GST-PDK1_1-556 interaction
Type: binding
From the text: 163 independent experiments. (F-G) Interaction and displacement of interactions using
164 AlphaScreen technlology. (F) Interaction of biotin-GS-022 with GST-PDK11-556 and GST-
165 PDK11-359. N=2 independent experiments. (G) Effect of HYG8 on the interaction between
166 biotin-GS-022 and GST-PDK11-556. N=2 independent experiments.
167 The Thermo Fisher Scientific “PDK1 Direct” assay produced results quite different from those
168 obtained using our PDK1 kinase assay which uses [γ32P]ATP and T308tide
169 ([…]) as substrates. Phosphorylation of T308tide and of the alternative
170 peptides GS-022 ([…]) and GS-023 ([…]-K(5-FAM)) was
171 compared. GS-023 and GS-022 were phosphorylated efficiently by GST-PDK11-556, with over
172 30 and 10-fold higher turnover than T308tide, respectively (fig. S2A). The increased
174 GS-023 peptide provided a degree of improvement of substrate phosphorylation by PDK11-
175 556. GST-PDK11-359, comprising only the catalytic domain but lacking the linker region and the
176 PH domain, phosphorylated the three substrates similarly, with a slight increased turnover
177 towards GS-023 (fig. S2B). Thus, the phosphorylation of GS-23 and GS-022, but not that of
178 T308tide, depended on the construct used (figs. S2C-E). To assess a possible differential […]
180 that measured the interaction of biotin-GS-022 with GST-PDK11-556 and GST-PDK11-359. […]

- effect on interaction between GS-022 and PDK1_1-556: potently
SMILES: O=C(O[C@H]1[C@@H](OP(=O)(O)O)[C@H](OP(=O)(O)O)[C@@H](OP(=O)(O)O)[C@H](OP(=O)(O)O)[C@H]1OP(=O)(O)O)c1ccccc1 [HYG8, 2-O-benzoyl-IP5]
